pKd: −log10 of the molar value.
How the values were obtained:
[1] = biological target: PCSK9 (biotinylated) (Homo sapiens, UniProt Q8NBP7); test: Binding of compounds to PCSK9 by SPR (BIAcore S200, SA chip); conditions: for pKd: SPR, immobilized biotinylated PCSK9, test compounds diluted 3-fold from 10 µM
Method: Table 1. Main experimental materials and instruments
• 1) Protein: PCSK9 (biotinylated) (Acro). The protein was dissolved in water to 200 µg/mL, and the solution was stored at -80 °C. • 2) Chip: SA chip. • 3) Running buffer: 1 × HBSP + 4% DMSO + 0.1 mM CaCl2.
• 1) The chip was pre-warmed to room temperature. • 2) The required buffer was prepared and filtered through a 0.22 µm filter membrane. • 3) The chip was loaded, and parameters were written to the chip. • 4) The PCSK9 protein was diluted to 50 µg/mL in PBS. • 5) An immobilization program was set on the BIAcore S200 instrument. • 6) The immobilization program was run. • 7) The final immobilization response value was 8000 RU, and the maximum response value was 49.4 RU.
1) The compounds were serially diluted 3-fold in the running buffer. The reference compound was diluted 3-fold from 0.4 µM. The test compounds were diluted 3-fold from 10 µM. 2) A dissolution correction buffer was prepared according to the table below: Table 2. Dissolution correction buffer
3) The "LMW multi kinetics" program of the instrument was set as a running program for compound testing. • a) The association time was set at 100 s, and the dissociation time was set at 300 s. 4) The compound testing program was run.
1) Rmax = (MWanalyte/MWligand) × RL × Sm [formula] When affinity fitting was used to fit a curve, the response value of the highest concentration should be close to the fitted Rmax value for an optimal result. 2) Solvent correction and compound concentration gradients were checked. 3) The baseline, binding, and positive compound results in the test report were checked. 4) A suitable fitting method was selected according to the actual association to fit a curve. 5) Whether the fitting result met the data quality assessment criteria of the instrument was checked. Table 3. The binding of compounds of the present disclosure to PCSK9 (KD)

[2] = Stability test in hepatocytes (metabolic clearance rate); format: in vitro ADME; conditions: cryopreserved hepatocytes, mouse hepatocytes, 0.5 × 10^6 cells/mL, up to 120 min
Method: • 1) The test compounds and the control drug verapamil powder were dissolved in DMSO to prepare high-concentration stock solutions. Before use, the stock solutions were diluted with DMSO to prepare 100 µM working solutions. The final concentrations of the test compounds and verapamil were 1 µM. • 2) A tube of cryopreserved hepatocytes was taken. It was ensured that the hepatocytes were still in a low-temperature frozen state before thawing. The hepatocytes were quickly placed in a 37 °C water bath, gently shaken until all ice crystals were dispersed, sprayed with 70% ethanol, and then transferred to a biosafety cabinet. • 3) The contents of small tubes of hepatocytes from different species were poured into a centrifuge tube containing 50 mL of thawing culture medium and centrifuged at 100 g for 10 min. After centrifugation, the thawing culture medium was pipetted off, and a sufficient amount of incubation culture medium was added to obtain a cell suspension with a cell density of about 1.0 × 10^6 cells/mL. • 4) Hepatocytes were counted using Cellometer Vision, and the viable cell density was determined. The viability of hepatocytes must be greater than 75%. The hepatocyte suspension was diluted with the incubation culture medium to a viable cell density of 0.5 × 10^6 cells/mL. • 5) 198 µL of the viable cell suspension was transferred to a 96-well deep-well plate, and the deep-well plate was placed on a vortexer and pre-heated in an incubator for 10 min. In the experiment, the incubation was performed in duplicate. • 6) 2 µL of the 100 µM test compound or verapamil solution was added to each well to start a reaction, and the deep-well plate was placed back on the vortexer in the incubator. • 7) The samples were incubated. At 0 min, 15 min, 30 min, 60 min, 90 min, and 120 min, 25 µL of the suspension was taken, and 150 µL of acetonitrile containing an internal standard was added to stop the reaction. After 10 min of vortexing, the mixture was centrifuged at 3220 g at 4 °C for 45 min. […] After thorough mixing, the mixture was analyzed by UPLC-MS/MS.
All data calculations were performed through Microsoft Excel software. The peak areas were determined through an extracted ion chromatogram. Through linear fitting of the natural logarithm of the parent drug […] percentage versus time, the in vitro half-life (T1/2) of the parent drug was determined.
The in vitro half-life (T1/2) was calculated through the slope: In vitro T1/2 = 0.693/k [formula]
The in vitro clearance rate (in µL/min/10^6 cells) was calculated using the following formula: In vitro CLint = kV/N, [formula] • where V = the incubation volume per well (0.2 mL); • N = the number of cells per well (0.1 × 10^6 cells). […]

[3] = test system: LDLR protein level of HepG2 cells; test: Effect on LDLR level of HepG2 cells stimulated with PCSK9 D374Y (human LDLR ELISA); format: cell-based; conditions: 75 µM compound; for LDLR up-regulation level" (% control): 4 nM PCSK9 D374Y, 48 h, mean of three duplicate wells; for LDLR protein level result relative to reference compound 1: fold of the result of reference compound 1
Method: HepG2 cells were seeded in a 96-well plate at 30,000 cells/well. The next day, 4 nM PCSK9 D374Y was added to each well to stimulate cells, and the cells were treated with a test compound at the same concentration. Three duplicate wells were set for each sample. The cells were cultured at 37 °C with 5% carbon dioxide for 48 h. The cells were washed twice with PBS, and the supernatant was discarded. The cells were then placed on ice and treated with an RIPA lysis buffer containing protease and phosphatase inhibitors at 50 µL/well. The cell culture plate was frozen overnight in a -80 °C freezer, thawed, then lysed on ice for 30 min, and then centrifuged at a low temperature for 15 min. The cell lysate was diluted 20-fold, and an ELISA was performed. A sample or a reference standard was added to a coated well plate at 50 µL/well, and the plate was incubated at room temperature for 2 h. The plate was washed 4 times with a washing buffer by aspiration, and a human LDLR conjugated antibody was added at 200 µL/well. The plate was incubated at room temperature for 2 h. The washing step was repeated, and a substrate solution was added at 200 µL/well. After 30 min, a stop solution was added at 50 µL/well, and the OD was measured at 450 nm. After the LDLR concentration in the sample wells was calculated according to a standard curve, the LDLR increase rate was calculated using the formula (sample value - mean of control wells) / mean of control wells. Data were processed using GraphPad Prism 8. Table 6. The effects of reference compound 1 and example compounds at a concentration of 75 µM on the LDLR protein level of HepG2 cells

[4] = test system: Mouse hepatocytes; test: Metabolite testing in mouse hepatocytes (parent drug remaining); format: in vitro ADME, Mice; conditions: mouse hepatocytes (ICR/CD-1, male), 10 µM
Method: The objective of this experiment was to identify possible metabolites of a test compound in hepatocytes of different species and speculate about its possible metabolic pathway. The test concentration of the test compound was 10 µM.
Mouse hepatocytes were preserved in liquid nitrogen.
The test compound and the control drug verapamil powder were dissolved in DMSO to prepare high-concentration stock solutions. Before use, the stock solutions were diluted with DMSO to prepare 2 mM working solutions. The final concentrations of the test compound and verapamil were 10 µM.
• 1) Before use, the hepatocyte thawing solution and the incubation solution were placed in a 37 °C water bath and pre-heated for at least 15 min. • 2) A tube of cryopreserved hepatocytes was taken. […] After centrifugation, the thawing culture medium was pipetted off, and a sufficient amount of incubation culture medium was added to obtain a cell suspension with a cell density of about 1.5 × 10^6 cells/mL. • 4) Hepatocytes were counted using Cellometer Vision, and the viable cell density was determined. […]
• 1) 1 µL of the 2 mM test compound solution was pipetted into a 24-well incubation plate, and 199 µL of the hepatocyte suspension was then added to start a reaction. […] 60 µL of the supernatant was well mixed with 60 µL of purified water, and the mixture was then analyzed by UHPLC-MS/MS. […]

[5] = In vivo pharmacokinetic experiment in mice; conditions: oral, 10 mg/kg, fold of reference compound 1
Method: (§1) C57BL6J mice were used as test animals. […] Reference compound 1 and the example compound were both administered at a dose of 10 mg/kg. Procedure: Mice were intragastrically dosed with reference compound 1 and the example compound. At 0.25 h, 0.5 h, 1 h, 2 h, 4 h, 6 h, 8 h, and 24 h post-dose, blood samples (about 0.03 mL) were collected via peripheral venipuncture, placed into test tubes containing EDTA-K2, and centrifuged at around 4 °C at 4000 g per minute for 5 min to separate plasma, and the plasma was stored at -75 °C.
(§2) Determination of the content of the test compound in mouse plasma after the compound (at different concentrations) was orally administered: 10 µL of the mouse plasma collected at each time point post-dose was vortexed with 5 µL of a blank solution and 200 µL of a solution of dexamethasone (internal standard) in acetonitrile for 30 s. The mixture was centrifuged for 15 min (3900 rpm), and 12 µL of the supernatant was taken for LC/MS/MS analysis.

[6] = in vivo; conditions: male, C57BL6J, mouse, plasma, po, 10 mg/kg
Method: as §1, §2

Sequence of PCSK9 (biotinylated) (Q8NBP7 153-692): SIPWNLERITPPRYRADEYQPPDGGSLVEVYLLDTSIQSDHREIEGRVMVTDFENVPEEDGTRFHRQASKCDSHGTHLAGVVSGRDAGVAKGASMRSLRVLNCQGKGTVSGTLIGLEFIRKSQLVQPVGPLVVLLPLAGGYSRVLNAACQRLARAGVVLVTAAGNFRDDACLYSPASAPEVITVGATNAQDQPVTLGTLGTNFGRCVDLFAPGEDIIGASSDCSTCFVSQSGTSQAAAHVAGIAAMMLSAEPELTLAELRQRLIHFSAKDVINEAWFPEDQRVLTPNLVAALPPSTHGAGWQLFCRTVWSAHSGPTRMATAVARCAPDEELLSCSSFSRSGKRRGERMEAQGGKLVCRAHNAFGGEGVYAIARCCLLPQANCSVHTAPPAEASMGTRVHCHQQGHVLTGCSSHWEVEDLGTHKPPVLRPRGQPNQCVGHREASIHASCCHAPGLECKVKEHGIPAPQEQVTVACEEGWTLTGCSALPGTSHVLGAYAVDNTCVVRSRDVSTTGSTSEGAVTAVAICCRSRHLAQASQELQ

Compound | pKd [1] | hepatocyte CLint at 1 µM [2] [µL/min/1e6 cells] | LDLR up-regulation level" (% control) [3] [% control] | further results
O=c1ccccn1-c1ccc(N[C@H]2CC[C@H](Nc3ncc4c(n3)CCC4)C2)nc1 [Example 1, 1-(6-{[(1S,3S)-3-(6,7-Dihydro-5H-cyclopenta[1,2-d]pyrimidin-2-ylamino)cyclopentyl]amino}pyridin-3-yl)-1,2-dihydropyridin-2-one] | 7.58 | 13.2 |  | 
O=c1ccccn1-c1ccc(N[C@H]2CC[C@H](Nc3ncc4c(n3)C(F)(F)CC4)C2)nc1 [Example 2, 1-(6-{[(1S,3S)-3-[(7,7-Difluoro-6,7-dihydro-5H-cyclopenta[1,2-d]pyrimidin-2-yl)amino]cyclopentyl]amino}pyridin-3-yl)-1,2-dihydropyridin-2-one] | 7.16 | 21 |  | 
O=c1ccccn1-c1ccc(N[C@H]2CC[C@H](Nc3ncc4c(n3)OCCO4)C2)nc1 [Example 3, 1-(6-{[(1S,3S)-3-(6,7-Dihydro[1,4]dioxino[3,2-d]pyrimidin-2-ylamino)cyclopentyl]amino}pyridin-3-yl)-1,2-dihydropyridin-2-one] | 7.12 | < 0.1 | 160 | binding stronger than that of the reference compound 2 ([1]; fold of binding strength versus reference compound 2): more than 10 times; Normalized parent drug remaining proportion (%) after 240 min of incubation [4]: 98.3%; plasma exposure level relative to reference compound 1 [5]: ~3 times; AUC(0-t) [6]: 48000 ng·h/mL; Cmax [6]: 11400 ng/mL; half-life [6]: 2.75 h
O=c1cccnn1-c1ccc(N[C@H]2CC[C@H](Nc3ncc4c(n3)OCCO4)C2)nc1 [Example 5, 2-(6-{[(1S,3S)-3-(6,7-Dihydro[1,4]dioxino[3,2-d]pyrimidin-2-ylamino)cyclopentyl]amino}pyridin-3-yl)-3H,2H-1,2-pyridazin-3-one] |  |  | 188 | 
O=c1ccccn1-c1cnc(N[C@H]2CC[C@H](Nc3ncc4c(n3)OCCO4)C2)c(F)c1 [Example 6, 1-(5-Fluoro-6-{[(1S,3S)-3-(6,7-dihydro[1,4]dioxino[3,2-d]pyrimidin-2-ylamino)cyclopentyl]amino}pyridin-3-yl)-1,2-dihydropyridin-2-one] |  |  | 155 | 
O=c1ccccn1-c1cnc(N[C@H]2CC[C@H](Nc3ncc4c(n3)OCCO4)C2)cn1 [Example 7, 1-(5-{[(1S,3S)-3-(6,7-Dihydro[1,4]dioxino[3,2-d]pyrimidin-2-ylamino)cyclopentyl]amino}pyrazin-2-yl)-1,2-dihydropyridin-2-one] |  |  |  | LDLR protein level result relative to reference compound 1 [3]: 1.16 times
O=C1c2ccccc2CN1c1cnc(N[C@H]2CC[C@H](Nc3ncc4c(n3)OCCO4)C2)cn1 [Example 8, 2-(5-{[(1S,3S)-3-(6,7-Dihydro[1,4]dioxino[3,2-d]pyrimidin-2-ylamino)cyclopentyl]amino}pyrazin-2-yl)-2,3-dihydro-1H-isoindol-1-one] |  |  |  | LDLR protein level result relative to reference compound 1 [3]: 1.04 times
O=c1ccccn1-c1ccc(N[C@H]2CC[C@H](Nc3ncc4ccccc4n3)C2)nc1 [Example 11, 1-(6-{[(1S,3S)-3-(Quinazolin-2-ylamino)cyclopentyl]amino}pyridin-3-yl)-1,2-dihydrop yridin-2-one] | 6.74 |  |  | 
O=c1ccccn1-c1ccc(N[C@H]2CC[C@H](Nc3ncc4sccc4n3)C2)nc1 [Reference compound 2, reference compound] |  | 15.7 |  | 

From EP4752145A1, “DIAMINOCYCLOPENTYL SUBSTITUTED HETEROARYL DERIVATIVES, USE THEREOF AND PREPARATION METHOD THEREFOR” (Tuojie Biotech (Shanghai) Co., Ltd., priority 2023, dated 2025)
